Experimental data as given in paper PMC8515607 (ACS Omega, 2021).
Read-outs that look alike come from different tables or passages of the source.

What was measured:
BALB/3T3 = experiment: In vitro antiproliferative activity, SRB assay, normal fibroblasts BALB/3T3; format: cell-based; settings: 72 h, mean ± SD
From the text: (§1) The A549 and MCF7 cell lines were purchased from the European Collection of Authenticated Cell Cultures (ECACC, Salisbury, U.K., 86012804 and 86012803). The LoVo cell line was purchased from the American Type Culture Collection (CCL-229, ATCC, Manassas, VA), and LoVo/DX by courtesy of Prof. E. Borowski (Technical University of Gdańsk, Gdańsk, Poland). The BALB/3T3 cell line was purchased from the American Type Culture Collection (CCL-163, ATCC, Manassas, VA). All of the cell lines are maintained in the Institute of Immunology and Experimental Therapy (IIET), Wroclaw, Poland.
(§2) A549 cells were cultured in a mixture of OptiMEM and Roswell Park Memorial Institute (RPMI) 1640 (1:1) medium (IIET, Wroclaw, Poland), supplemented with 10% fetal bovine serum HyClone (GE Healthcare) and 2 mM L-glutamine (Sigma-Aldrich, Germany). MCF7 cells were cultured in a mixture of Eagle’s medium (IIET, Wroclaw, Poland), supplemented with 10% fetal bovine serum, 2 mM L-glutamine, and insulin (Sigma-Aldrich, Germany). LoVo and LoVo/DX cells were cultured in F12K medium (Corning), supplemented with 10% fetal bovine serum HyClone (GE Healthcare) and 0.1 μg/mL doxorubicin (Accord) for LoVo/DX. BALB/3T3 fibroblasts were cultured in Dulbecco’s medium (Gibco), supplemented with 10% fetal bovine serum (GE Healthcare) and 2 mM L-glutamine (Sigma-Aldrich, Germany). All culture media contained antibiotics: 100 U/mL penicillin (Polfa-Tarchomin, Poland) and 0.1 mg/mL streptomycin (Sigma-Aldrich, Germany). All cell lines were cultured during entire experiment in humid atmosphere at 37 °C and 5% CO2.
(§3) All cell lines were exposed to each tested agent at different concentrations in the range 100–0.00001 μg/mL for 72 h. The cells were also exposed to the reference drug cisplatin (Teva Pharmaceuticals, Poland) and doxorubicin (Accord Healthcare Limited, U.K.). Additionally, all cell lines were exposed to dimethyl sulfoxide (DMSO) (solvent used for tested compounds) (POCh, Poland) at concentrations corresponding to those present in tested agents dilutions. After 72 h, sulforhodamine B (SRB) assay was performed.[57]
(§4) After 72 h of incubation with the tested compounds, the cells were fixed in situ by gently adding cold 50% trichloroacetic acid (TCA) (POCh, Poland) and were incubated at room temperature for 1 h. Then, the wells were washed four times with water and air-dried. Next, 0.1% solution of sulforhodamine B (Sigma-Aldrich, Germany) in 1% acetic acid (POCh, Poland) was added to each well and the plates were incubated at room temperature for 0.5 h. After incubation time, unbound dye was removed by washing plates four times with 1% acetic acid, whereas stain bound to cells was solubilized with 10 mM Tris base (Sigma-Aldrich, Germany). Absorbance of each solution was read at Synergy H4 Hybrid Multi-Mode Microplate Reader (BioTek Instruments) at the 540 nm wavelength.
(§5) IC50 values were calculated in Excel sheet using formulas adapted by Mateusz Psurski fromCheburator 0.4, Dmitry Nevozhay software (version 1.2.0 software by Dmitry Nevozhay, 2004–2014, http://www.cheburator.nevozhay.com, freely available) for each experiment.[58] Compounds at each concentration were tested in triplicate in a single experiment, and each experiment was repeated at least three times independently.

LoVo/DX = experiment: cells; format: cell-based, human; settings: for LoVo/DX RI: resistance index = IC50 LoVo/DX / IC50 LoVo; for LoVo/DX SI: selectivity index = IC50 BALB/3T3 / IC50 LoVo/DX
From the text: as §1, §2, §3, §4, §5

MCF-7 = experiment: cells; format: cell-based, human; settings: for MCF-7 SI: selectivity index = IC50 BALB/3T3 / IC50 MCF-7
From the text: as §1, §2, §3, §4, §5

LoVo = experiment: cells; format: cell-based, human; settings: for LoVo SI: selectivity index = IC50 BALB/3T3 / IC50 LoVo
From the text: as §1, §2, §3, §4, §5

A549 = experiment: cells; format: cell-based, human; settings: for A549 SI: selectivity index = IC50 BALB/3T3 / IC50 A549
From the text: as §1, §2, §3, §4, §5

[1] = Mus musculus, BALB/3T3, normal murine embryonic fibroblasts
[2] = Homo sapiens, LoVo/DX, 72 h, read-out: LoVo/DX IC50 (nM), 72 h exposure, SRB, mean ± SD
[3] = Homo sapiens, MCF7, 72 h, read-out: MCF-7 IC50 (nM)
[4] = Homo sapiens, LoVo, 72 h, read-out: LoVo IC50 (nM)
[5] = Homo sapiens, A549, 72 h, read-out: A549 IC50 (nM), 72 h exposure, SRB, mean ± SD
[6] = read-out: LoVo/DX IC50, 72 h exposure, SRB, mean ± SD

N.N.[Cl][Pt][Cl] [cisplatin, reference compound]
IC50 (BALB/3T3; normal murine embryonic fibroblasts): 3300 ± 970 nM
IC50 (LoVo/DX; 72 h exposure, SRB, mean ± SD, read-out: LoVo/DX IC50): 3000 ± 800 nM
LoVo/DX RI (LoVo/DX): 0.7
LoVo/DX SI (LoVo/DX): 1.1
IC50 (MCF-7; 72 h exposure, SRB, mean ± SD, read-out: MCF-7 IC50): 4400 ± 1200 nM
MCF-7 SI (MCF-7): 0.8
IC50 (LoVo; 72 h exposure, SRB, mean ± SD, read-out: LoVo IC50): 4100 ± 860 nM
LoVo SI (LoVo): 0.8
IC50 (A549; 72 h exposure, SRB, mean ± SD, read-out: A549 IC50): 3500 ± 630 nM
A549 SI (A549): 0.9

CNc1ccc2c(cc1=O)[C@@H](n1cc(CNC(=O)CCNC(=O)OC(C)(C)C)nn1)CCc1cc(OC)c(OC)c(OC)c1-2 [Compound 34]
IC50 (BALB/3T3; [1]): 270 ± 67 nM
IC50 (LoVo/DX; [2]): 17000 ± 1600 nM
LoVo/DX RI (LoVo/DX): 510
LoVo/DX SI (LoVo/DX): <0.1
IC50 (MCF-7; [3]): 10 ± 2.1 nM
MCF-7 SI (MCF-7): 27.0
IC50 (LoVo; [4]): 33 ± 10 nM
LoVo SI (LoVo): 8.2
IC50 (A549; [5]): 26 ± 11 nM
A549 SI (A549): 10.4

CCCc1cn([C@H]2CCc3cc(OC)c(OC)c(OC)c3-c3ccc(NC)c(=O)cc32)nn1 [Compound 6]
IC50 (BALB/3T3; [1]): 24 ± 9.3 nM
IC50 (LoVo/DX; [2]): 85 ± 21 nM
LoVo/DX RI (LoVo/DX): 6.5
LoVo/DX SI (LoVo/DX): 0.3
IC50 (MCF-7; [3]): 11 ± 1.2 nM
MCF-7 SI (MCF-7): 2.2
IC50 (LoVo; [4]): 13 ± 1.9 nM
LoVo SI (LoVo): 1.8
IC50 (A549; [5]): 15 ± 3.7 nM
A549 SI (A549): 1.6

CNc1ccc2c(cc1=O)[C@@H](n1cc(CO)nn1)CCc1cc(OC)c(OC)c(OC)c1-2 [Compound 9]
IC50 (BALB/3T3; [1]): 14 ± 2.1 nM
IC50 (LoVo/DX; [2]): 1500 ± 210 nM
LoVo/DX RI (LoVo/DX): 140
LoVo/DX SI (LoVo/DX): <0.1
IC50 (MCF-7; [3]): 6.8 ± 1 nM
MCF-7 SI (MCF-7): 2.1
IC50 (LoVo; [4]): 11 ± 5.6 nM
LoVo SI (LoVo): 1.3
IC50 (A549; [5]): 12 ± 2.1 nM
A549 SI (A549): 1.2

CNc1ccc2c(cc1=O)[C@@H](N)CCc1cc(OC)c(OC)c(OC)c1-2 [Compound 3, N-deacetyl-10-methylamino-10-demethoxycolchicine]
IC50 (BALB/3T3; [1]): 16 ± 2.1 nM
IC50 (LoVo/DX; [2]): 55 ± 13 nM
LoVo/DX RI (LoVo/DX): 6.2
LoVo/DX SI (LoVo/DX): 0.3
IC50 (MCF-7; [3]): 8.1 ± 1.3 nM
MCF-7 SI (MCF-7): 2.0
IC50 (LoVo; [4]): 8.9 ± 1.4 nM
LoVo SI (LoVo): 1.8
IC50 (A549; [5]): 12 ± 2.3 nM
A549 SI (A549): 1.3

CNc1ccc2c(cc1=O)[C@@H](n1cc(CCO)nn1)CCc1cc(OC)c(OC)c(OC)c1-2 [Compound 11]
IC50 (BALB/3T3; [1]): 18 ± 7.1 nM
IC50 (LoVo/DX; [2]): 1700 ± 290 nM
LoVo/DX RI (LoVo/DX): 120
LoVo/DX SI (LoVo/DX): <0.1
IC50 (MCF-7; [3]): 13 ± 1.6 nM
MCF-7 SI (MCF-7): 1.4
IC50 (LoVo; [4]): 14 ± 6.5 nM
LoVo SI (LoVo): 1.3
IC50 (A549; [5]): 14 ± 2 nM
A549 SI (A549): 1.3

CNc1ccc2c(cc1=O)[C@@H](n1cc(CNC(=O)CCC(F)(F)F)nn1)CCc1cc(OC)c(OC)c(OC)c1-2 [Compound 33]
IC50 (BALB/3T3; [1]): 27 ± 8.7 nM
IC50 (LoVo/DX; [2]): 3000 ± 800 nM
LoVo/DX RI (LoVo/DX): 270
LoVo/DX SI (LoVo/DX): <0.1
IC50 (MCF-7; [3]): 9.7 ± 3.4 nM
MCF-7 SI (MCF-7): 2.8
IC50 (LoVo; [4]): 11 ± 5.5 nM
LoVo SI (LoVo): 2.5
IC50 (A549; [5]): 11 ± 0.1 nM
A549 SI (A549): 2.5

CNc1ccc2c(cc1=O)[C@@H](n1cc(CCl)nn1)CCc1cc(OC)c(OC)c(OC)c1-2 [Compound 10]
IC50 (BALB/3T3; [1]): 13 ± 3 nM
IC50 (LoVo/DX; [2]): 95 ± 24 nM
LoVo/DX RI (LoVo/DX): 7.9
LoVo/DX SI (LoVo/DX): 0.1
IC50 (MCF-7; [3]): 8.6 ± 3.2 nM
MCF-7 SI (MCF-7): 1.5
IC50 (LoVo; [4]): 12 ± 2.4 nM
LoVo SI (LoVo): 1.1
IC50 (A549; [5]): 13 ± 3.3 nM
A549 SI (A549): 1.0

CNc1ccc2c(cc1=O)[C@@H](n1cc(CNC(=O)OC)nn1)CCc1cc(OC)c(OC)c(OC)c1-2 [Compound 37]
IC50 (BALB/3T3; [1]): 14 ± 2.4 nM
IC50 (LoVo/DX; [2]): 1500 ± 240 nM
LoVo/DX RI (LoVo/DX): 180
LoVo/DX SI (LoVo/DX): <0.1
IC50 (MCF-7; [3]): 4.7 ± 0.5 nM
MCF-7 SI (MCF-7): 3.0
IC50 (LoVo; [4]): 8.5 ± 2.3 nM
LoVo SI (LoVo): 1.6
IC50 (A549; [5]): 7.2 ± 0.7 nM
A549 SI (A549): 1.9

CNc1ccc2c(cc1=O)[C@@H](n1cc(-c3ccc(Cl)cc3)nn1)CCc1cc(OC)c(OC)c(OC)c1-2 [Compound 15]
IC50 (BALB/3T3; [1]): 92 ± 20 nM
IC50 (LoVo/DX; [2]): 150 ± 35 nM
LoVo/DX RI (LoVo/DX): 3.2
LoVo/DX SI (LoVo/DX): 0.6
IC50 (MCF-7; [3]): 35 ± 14 nM
MCF-7 SI (MCF-7): 2.6
IC50 (LoVo; [4]): 47 ± 22 nM
LoVo SI (LoVo): 2.0
IC50 (A549; [5]): 39 ± 2.7 nM
A549 SI (A549): 2.4

CNc1ccc2c(cc1=O)[C@@H](n1cc(COC(=O)c3ccccc3Cl)nn1)CCc1cc(OC)c(OC)c(OC)c1-2 [Compound 27]
IC50 (BALB/3T3; [1]): 8.7 ± 2 nM
IC50 (LoVo/DX; [2]): < 100 nM
IC50 (LoVo/DX; [6]): 89 ± 18 nM
LoVo/DX RI (LoVo/DX): 19
LoVo/DX SI (LoVo/DX): 0.1
IC50 (MCF-7; [3]): 2.4 ± 0.8 nM
MCF-7 SI (MCF-7): 3.6
IC50 (LoVo; [4]): 4.7 ± 1.7 nM
LoVo SI (LoVo): 1.9
IC50 (A549; [5]): 2.9 ± 0.6 nM
A549 SI (A549): 3.0

CNc1ccc2c(cc1=O)[C@@H](n1cc(-c3ccccc3)nn1)CCc1cc(OC)c(OC)c(OC)c1-2 [Compound 14]
IC50 (BALB/3T3; [1]): 20 ± 7.6 nM
IC50 (LoVo/DX; [2]): < 30 nM
IC50 (LoVo/DX; [6]): 27 ± 7.6 nM
LoVo/DX RI (LoVo/DX): 2.7
LoVo/DX SI (LoVo/DX): 0.7
IC50 (MCF-7; [3]): 10 ± 1.8 nM
MCF-7 SI (MCF-7): 2.0
IC50 (LoVo; [4]): 10 ± 0.8 nM
LoVo SI (LoVo): 2.0
IC50 (A549; [5]): 13 ± 2.6 nM
A549 SI (A549): 1.5

CNc1ccc2c(cc1=O)[C@@H](n1cc(CNC(=O)C(C)C)nn1)CCc1cc(OC)c(OC)c(OC)c1-2 [Compound 29]
IC50 (BALB/3T3; [1]): 48 ± 14 nM
IC50 (LoVo/DX; [2]): 2700 ± 600 nM
LoVo/DX RI (LoVo/DX): 190
LoVo/DX SI (LoVo/DX): <0.1
IC50 (MCF-7; [3]): 12 ± 3.2 nM
MCF-7 SI (MCF-7): 4.0
IC50 (LoVo; [4]): 14 ± 2.3 nM
LoVo SI (LoVo): 3.4
IC50 (A549; [5]): 12 ± 2.4 nM
A549 SI (A549): 4.0
